In publication PMC3589550 (Nature structural & molecular biology, 2011):
Ends that are not written are not given here.

How the values were obtained:
[1] = molecular target: HAUSP TRAF domain (HAUSP^62–205) (Homo sapiens, UniProt Q93009); type: binding; settings: ITC
HAUSP TRAF domain = experiment: Competitive ITC: vIRF4^202–216 vs cellular substrate peptides on the TRAF domain; type: binding
HAUSP [2] = molecular target: T1, HAUSP (Homo sapiens, UniProt Q93009); experiment: Co-IP / GST pull-down of HAUSP; type: binding; settings: transfected 293T cells
HAUSP [3] = molecular target: T1, HAUSP; experiment: In vitro deubiquitination; type: biochemical
HAUSP [4] = molecular target: T1, HAUSP; experiment: In vitro DUB assay with ubiquitinated MDM2; type: biochemical; settings: HAUSP preincubated with increasing concentrations of peptide
PEL cells = experiment: Immunoblot of p53 and transcriptional targets, PEL cells; type: cell-based; settings: various PEL cells, 6 h
BJAB cells = experiment: Immunoblot of p53 pathway proteins, BJAB; type: cell-based; settings: 6 h

T1 sequence (Q93009 whole entry): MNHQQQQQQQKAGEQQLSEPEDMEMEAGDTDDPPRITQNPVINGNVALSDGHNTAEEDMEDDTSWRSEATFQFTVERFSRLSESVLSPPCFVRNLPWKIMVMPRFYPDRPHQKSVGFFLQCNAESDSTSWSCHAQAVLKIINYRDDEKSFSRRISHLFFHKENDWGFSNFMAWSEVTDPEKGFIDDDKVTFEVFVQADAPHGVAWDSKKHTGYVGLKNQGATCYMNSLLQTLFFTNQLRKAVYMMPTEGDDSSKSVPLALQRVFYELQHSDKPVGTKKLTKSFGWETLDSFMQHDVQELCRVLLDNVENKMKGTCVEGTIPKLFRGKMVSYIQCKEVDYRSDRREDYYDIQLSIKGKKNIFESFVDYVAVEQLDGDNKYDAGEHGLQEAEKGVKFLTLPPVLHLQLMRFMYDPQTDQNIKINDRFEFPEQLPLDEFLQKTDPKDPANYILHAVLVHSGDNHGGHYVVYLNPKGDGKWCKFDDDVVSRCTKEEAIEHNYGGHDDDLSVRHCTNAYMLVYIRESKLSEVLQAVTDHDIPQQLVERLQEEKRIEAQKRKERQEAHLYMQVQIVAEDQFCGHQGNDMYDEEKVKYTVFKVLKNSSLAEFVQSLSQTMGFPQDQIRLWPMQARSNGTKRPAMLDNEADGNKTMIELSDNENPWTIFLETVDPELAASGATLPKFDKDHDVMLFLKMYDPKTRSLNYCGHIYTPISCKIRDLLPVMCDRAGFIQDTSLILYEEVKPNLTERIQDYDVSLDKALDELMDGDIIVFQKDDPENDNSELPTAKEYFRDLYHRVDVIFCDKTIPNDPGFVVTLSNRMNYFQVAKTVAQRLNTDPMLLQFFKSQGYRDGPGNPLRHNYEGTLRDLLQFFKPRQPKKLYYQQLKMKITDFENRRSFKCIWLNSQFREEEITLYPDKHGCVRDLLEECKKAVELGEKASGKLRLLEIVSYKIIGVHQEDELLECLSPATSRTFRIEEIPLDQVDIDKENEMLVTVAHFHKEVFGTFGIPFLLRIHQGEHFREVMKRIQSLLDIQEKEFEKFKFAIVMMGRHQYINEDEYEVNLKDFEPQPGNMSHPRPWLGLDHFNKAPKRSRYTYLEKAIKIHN
HAUSP TRAF domain (HAUSP^62–205), sequence (Q93009 62-205): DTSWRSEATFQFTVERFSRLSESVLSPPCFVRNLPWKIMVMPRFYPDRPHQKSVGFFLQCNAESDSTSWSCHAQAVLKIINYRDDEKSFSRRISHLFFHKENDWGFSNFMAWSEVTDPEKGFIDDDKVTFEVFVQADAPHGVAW

Molecule: CC[C@H](C)[C@H](NC(=O)[C@H](Cc1c[nH]c2ccccc12)NC(=O)[C@@H](NC(=O)[C@@H](N)CO)C(C)C)C(=O)N1CCC[C@H]1C(=O)N[C@H](C(=O)N[C@@H](CC(N)=O)C(=O)N[C@@H](CCC(=O)O)C(=O)NCC(=O)N[C@@H](C)C(=O)N[C@@H](CO)C(=O)N[C@H](C(=O)N[C@@H](CO)C(=O)NCC(=O)N[C@@H](CCSC)C(=O)O)[C@@H](C)O)C(C)C [vif1]
- TRAF binding affinity, in words [1]: binds to the HAUSP TRAF domain with the highest affinity among all reported substrates
- observed association constant (Kobs) (HAUSP TRAF domain; vIRF4^202–216 titrated as competitor against MDM2^137–152): 1.09e+07 M⁻¹
- observed association constant (Kobs) (HAUSP TRAF domain; vIRF4^202–216 titrated as competitor against p53^350–364): 4.42e+07 M⁻¹
- observed association constant (Kobs) (HAUSP TRAF domain; vIRF4^202–216 titrated as competitor against p53^355–369): 3.58e+07 M⁻¹
- interaction with HAUSP (HAUSP [2]): individually capable of interacting with HAUSP
- HAUSP enzymatic activity against K48-linked polyubiquitin chains (HAUSP [3]; K48-linked polyubiquitin chains): ineffectiveness against K48-linked polyubiquitin chains
- HAUSP DUB activity (HAUSP [3]; purified HAUSP, K48- or K63-linked 3–7 polyubiquitin chains): minimally inhibited activity
- HAUSP DUB activity toward ubiquitinated MDM2 (HAUSP [4]): effectively blocked HAUSP DUB activity when ubiquitinated MDM2 was used as a substrate
- HAUSP levels (PEL cells): Neither the vif1 nor vif2 peptide treatment altered HAUSP levels
- HAUSP levels (BJAB cells): Neither the vif1 nor vif2 peptide treatment altered HAUSP levels

Molecule: DLVQELQEEKPSSSHL [MDM2^137–152, reference compound]
- association constant (Ka) (HAUSP TRAF domain; substrate peptide titrated into the HAUSP TRAF domain): 91000 M⁻¹
